The text below walks through data of patent US20210130411A1, “CYCLIC HEXAPEPTIDES COMPOUNDS WITH ANTI-MALARIAL ACTIVITY” (priority 2018, published 2021).

The pEC50 is −log10 of the EC50, conventionally taken in molar units.

The subject of assay [1] is P. falciparum K1 (chloroquine-resistant strain). In words: microbe, parasite or virus in culture. The protocol:
For the in vitro study of the antimalarial activity against P. falciparum K1, this strain originating from Thailand that is resistant to chloroquine and pyrimethamine but sensitive to mefloquine was used. The cultures are naturally asynchronous (65-75% ring stage) and are maintained in continuous log phase growth in RPM11640 medium supplemented with 5% washed human A+erythrocytes, 25 mM HEPES, […] NaHCO3, and AlbuMAXII (lipid-rich bovine serum albumin) (GIBCO, Grand Island, N.Y.) (CM). All cultures and assays are conducted at 37° C. under an atmosphere of 5% CO2 and 5% 02, with a balance of N2.
For drug sensitivity assays, tock drug solutions are prepared in 100% DMSO (dimethylsulfoxide) at 20 mM. The compound is further diluted to the appropriate concentration using complete medium RPM11640 supplemented with 15 nM cold hypoxanthine and AlbuMAXII. Assays are performed in sterile 96-well microtitre plates, each plate contains […] of parasite culture (0.5% parasitemia, 2.5% hematocrit). Each drug is tested in triplicate and parasite growth is compared to control and blank (uninfected erythrocytes) wells. After 24 h of incubation at 37° C., 3.7 Bq of [3H]hypoxanthine is added to each well. Cultures are incubated for a further 24 h before they are harvested onto glass-fiber filter mats. The radioactivity is counted using a Wallac Microbeta 1450 scintillation counter. […] The percentage inhibition is calculated from comparison of blank and control wells, and EC50 values are calculated using Prism™. Screen. The K1 line is used. The compound is diluted threefold over 12 different concentrations with an appropriate starting concentration. The EC50 is determined by a sigmoidal dose-response analysis using Prism™. For each assay, the EC50 value for the parasite line is determined against the known antimalarials chloroquine and artesunate, plus other standard compounds appropriate for the assay.
were tested in vitro against the intraerythrocytic form of the parasite Plasmodium falciparum K1 (chloroquine-resistant strain) and Plasmodium falciparum 31D7 (chloroquine-sensitive strain). The selectivity index (SI) was determined as the ration between EC50 against murine macrophages or HepG2 cells and the EC50 against P. falciparum.

Assay [2] deals with Plasmodium falciparum 3D7 (chloroquine-sensitive strain). The assay can be described thus: microbe, parasite or virus in culture. Format: cell-based. Here is the method:
For the in vitro study of the antimalarial activity against P. falciparum D7, two stock solutions were prepared: solution A (dilution of powder sample) at 20 mM and solution B at 1 mM (made by dilution of solution A). Next, the compounds were diluted 100-fold (drug solution=10 μM), then, suitable volume of drug solution was transferred in the SYBR GREEN assay plate (final concentration=10-0.15 μM). However, due to the high potency of the samples, the initial concentration was reduced in order to determine the EC50 values. The assay condition included: hematocrit at 2%, initial parasitemia 0.5% and artesunate and pyrimethamine were used as positive control. The fluorescence of each well is measured. The EC50 value of each compound was assessed in at least two independent experiments.
(§1) were tested in vitro against the intraerythrocytic form of the parasite Plasmodium falciparum K1 (chloroquine-resistant strain) and Plasmodium falciparum 31D7 (chloroquine-sensitive strain). The selectivity index (SI) was determined as the ration between EC50 against murine macrophages or HepG2 cells and the EC50 against P. falciparum. In the following Table 1 is shown the results of the EC50 obtained for each of the tested compounds against P. falciparum K1 (P. f. K1) and P. falciparum 3D7 (P. f. 3D7) and the SI calculated.

A further assay has as its system P. berghei. The assay can be described thus: Anti-malarial activity in vivo in mice inoculated with P. berghei. The settings on record: 50 mg/Kg oral, 3 consecutive days.
The subject of assay [3] is murine macrophages or HepG2 cells. The assay can be described thus: Selectivity index: EC50 against murine macrophages or HepG2 cells over EC50 against P. falciparum. The class given is cell-based. The note with it: ratio of EC50 against murine macrophages or HepG2 cells to EC50 against P. falciparum. Here is the method:
as §1

The test system of a further assay is P. falciparum 3D7 strain. In words: Killing rates assay, P. falciparum 3D7 intraerythrocytic form. The class given is cell-based, Plasmodium falciparum. The protocol:
The assay was performed in P. falciparum 3D7 strain in its intraerythrocytic form. […] Each compound was renewed (washing the parasites and adding culture media and the compound again) after the first 24 hours of treatment.

[4] abbreviates: read-out: EC50 P. f. K1, intraerythrocytic form, chloroquine-resistant strain.
Where [5] appears, read: intraerythrocytic form, chloroquine-sensitive strain, read-out: EC50 P. f. 3D7.
The mark [6] stands for this setting: 0 hrs of treatment, compound at 10×EC50.
Where [7] appears, read: 24 hrs of treatment, compound at 10×EC50 (CF89 500 nM, SP79 30 nM).
The mark [8] stands for this setting: 48 hrs of treatment, compound renewed after 24 hrs, 10×EC50.

pEC50: −log10 of the molar value. Where two headings read alike, the source gives them in different places. Where a SMILES comes first, the peptide text is derived from it. [ ]: non-standard residue; d: D form. The star is where a group is joined. Trt = c1ccc(C(c2ccccc2)(c2ccccc2)*)cc1; Sar = CNCC(=O)O; tBu = CC(C)(C)*

On to `CN1CC(=O)N[C@@H](CSC(c2ccccc2)(c2ccccc2)c2ccccc2)C(=O)N(C)CC(=O)N[C@@H](CSC(c2ccccc2)(c2ccccc2)c2ccccc2)C(=O)N(C)CC(=O)N[C@@H](CCC(=O)O)C1=O` [CFfs49.4, Cycle-NMe-Gly-L-Cys(Trt)-NMe-Gly-L-Cys(Trt)-NMe-Gly-L-Glu] (cyclo(C(Trt)[Sar]C(Trt)[Sar]E[Sar])), for which the values for the pEC50 in assay [1] (setting [4]) and in assay [2] (setting [5]) were 9.70 and 7.92, respectively. The same compound returned a Days of survival with P. berghei of 23 ± 4 days. The Parasitemia with P. berghei (Day 5) came out at 1.1 ± 0.2; in the assay on P. berghei (Day 7) it was 1.6 ± 0.2; in the assay on P. berghei (Day 9), 4.8 ± 0.5. Also, the “Parasitemia (reduction %)” value in the assay on P. berghei (Day 7) is recorded as “(46 ± 6%)”; in the assay with P. berghei (Day 9), “(50 ± 4%)”. In assay [3], the SI is given as more than 20000.

On to `CCc1nc(N)nc(N)c1-c1ccc(Cl)cc1` [Pyrimethamine], for which, in assay [2] (Plasmodium falciparum, 3D7, intraerythrocytic form, chloroquine-sensitive strain, read-out: EC50 P. f. 3D7), the pEC50 is 7.51. For the same compound, the figures for the Survival % in the assay with P. falciparum 3D7 strain (setting [6]), with P. falciparum 3D7 strain (setting [7]) and in the assay on P. falciparum 3D7 strain (setting [8]) were 100%, 53.52% and 9.59%, respectively.

Consider `CCN(CC)CCCC(C)Nc1ccnc2cc(Cl)ccc12` (stereo not shown) [Chloroquine, reference compound], for which the pEC50 in assay [1] (Plasmodium falciparum, K1, read-out: EC50 P. f. K1) is 6.33. Moreover, the Survival % with P. falciparum 3D7 strain (setting [6]) is reported as 100%; in the assay with P. falciparum 3D7 strain (setting [7]), 14.13%; in the assay with P. falciparum 3D7 strain (setting [8]), 7.04%. The compound also had a Days of survival in the assay on P. berghei of more than 30 days. The “Parasitemia (reduction %)” value in the assay on P. berghei (Day 5 (96 hrs after infection)), in the assay with P. berghei (Day 7) and in the assay on P. berghei (Day 9) was “(100%)” throughout. Also, the Parasitemia in the assay on P. berghei (Day 5), with P. berghei (Day 7) and in the assay on P. berghei (Day 9) was 0 in each case.

Regarding `CN1CC(=O)N[C@@H](CSC(c2ccccc2)(c2ccccc2)c2ccccc2)C(=O)N(C)CC(=O)N[C@@H](CSC(c2ccccc2)(c2ccccc2)c2ccccc2)C(=O)N(C)CC(=O)N[C@@H](COC(C)(C)C)C1=O` [CF87, Cycle-NMe-Gly-L-Cys(Trt)-NMe-Gly-L-Ser(^t-Bu)-NMe-Gly-L-Cys(Trt)] (cyclo(C(Trt)[Sar]C(Trt)[Sar]S(tBu)[Sar])), the pEC50 in assay [2] (3D7 (chloroquine-sensitive strain)) is 8.42. Further, the SI in assay [3] is recorded as more than 12500.

As for `O=C1C(O)=C([C@H]2CC[C@H](c3ccc(Cl)cc3)CC2)C(=O)c2ccccc21` [Atovaquone], the Survival % in the assay with P. falciparum 3D7 strain (setting [6]) stood at 100%; with P. falciparum 3D7 strain (setting [7]), 56.55%; with P. falciparum 3D7 strain (setting [8]), 32.02%.

For `COC(=O)CC[C@@H]1NC(=O)CN(C)C(=O)[C@H](CSC(c2ccccc2)(c2ccccc2)c2ccccc2)NC(=O)CN(C)C(=O)[C@H](CSC(c2ccccc2)(c2ccccc2)c2ccccc2)NC(=O)CN(C)C1=O` [CFfs49.5] (cyclo(C(Trt)[Sar]C(Trt)[Sar]E(OMe)[Sar])), in assay [2] (setting [5]), the pEC50 is 8.28. Further, in assay [3], the SI was more than 40000.

For the compound `C[C@@H](OC(C)(C)C)[C@@H]1NC(=O)CNC(=O)[C@H](CSC(c2ccccc2)(c2ccccc2)c2ccccc2)NC(=O)CNC(=O)[C@H](CSC(c2ccccc2)(c2ccccc2)c2ccccc2)NC(=O)CN(C)C1=O` [CF90, Cycle-L-Thr(^tBu)-NMe-Gly-L-Cys(Trt)-Gly-L-Cys(Trt)-Gly] (cyclo(C(Trt)GC(Trt)GT(tBu)[Sar])), the pEC50 in assay [1] (setting [4]) was 9.89; in assay [2] (setting [5]), 8.85. The SI in assay [3] is listed as >1 × 10^5.
